From patent publication US6472526B1, “Imidazole derivatives having an inhibitory activity for farnesyl transferase and process for preparation thereof” (LG Chemical Ltd., priority 1997, dated 2002) come the findings set out here.

Test [1] has as its target T1, Ras farnesyl transferase (Rattus norvegicus, UniProt Q02293+Q04631).
T1 construct: endogenous in cells; host or cells: Rat2 fibroblasts transformed with H-Ras or with an H-Ras/K-Ras C-terminus fusion
The test can be described thus: In vivo (cellular) inhibitory activity for Ras farnesyl transferase, Rat2 cell line which expresses C-Harvey-Ras protein. Format: cell-based. The gist of the method: (§1)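 Farnesylated versus unfarnesylated Ras bands were measured by autoradiography after Y13-259 immunoprecipitation and SDS-PAGE, giving CIC50 as 50% inhibition of farnesylation. Rat2 cells expressing H-Ras or an H-Ras fusion with K-Ras polybasic C-terminus got compound (1% DMSO), then [35S]methionine from 4 h onward for 20 h.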

Test [2] has as its target T1, Ras farnesyl transferase. The test can be described thus: In vivo (cellular) inhibitory activity for Ras farnesyl transferase, Rat2 cell line transformed with fused protein of H-Ras substituted with polybasic lysine domain at C-terminus of K-Ras. Format: cell-based. The gist of the method: as §1
For test [3], the target named is T2, Ras farnesyl transferase (Homo sapiens, UniProt P49354+P49356).
T2 construct: made in house
The test can be described thus: In vitro inhibitory activity for Ras farnesyl transferase, K-Ras substrate. Format: biochemical.

Test [4] addresses T2, Ras farnesyl transferase. The test can be described thus: In vitro inhibitory activity for Ras farnesyl transferase, H-Ras substrate. Format: biochemical.
[5] abbreviates: Rat2 cell line expressing C-Harvey-Ras, concentration inhibiting 50% of farnesyl bonding of Ras protein, read-out: H-Ras CIC50.
The mark [6] stands for this setting: Rat2 cell line transformed with H-Ras fused with polybasic lysine domain of K-Ras C-terminus, concentration inhibiting 50% of farnesyl bonding, read-out: K-Ras CIC50.
The mark [7] stands for this setting: in vitro farnesyl transferase assay, K-Ras, read-out: K-Ras IC50.
The mark [8] stands for this setting: recombinant farnesyl transferase 4.5 nM, Ras substrate protein 1.5 μM, tritium-farnesylpyrophosphate 0.15 μM, 30 minutes at 37° C., read-out: H-Ras IC50.

Molecules are shown by their SMILES.

Turning to `O=C(c1cccc(Br)c1)c1cn(Cc2c[nH]cn2)cc1-c1cccc2ccccc12` [Compound 48], the IC50 on Ras farnesyl transferase [1] (setting [5]) is 1000 to 50000 nM; on Ras farnesyl transferase [2] (setting [6]), 10000 to 100000 nM; on Ras farnesyl transferase [3] (setting [7]), 10000 nM; at Ras farnesyl transferase [4] (setting [8]), 150 nM.
Turning to `O=C(c1ccc(Br)cc1)c1cn(Cc2c[nH]cn2)cc1-c1cccc2ccccc12` [Compound 49], the IC50 at Ras farnesyl transferase [1] (setting [5]) was 700 nM; on Ras farnesyl transferase [2] (setting [6]) it was < 20000 nM; on Ras farnesyl transferase [3] (setting [7]), 485 nM; at Ras farnesyl transferase [4] (setting [8]), 30 nM.
With `Cc1ccccc1C(=O)c1cn(Cc2c[nH]cn2)cc1-c1cccc2ccccc12` [Compound 50], the IC50 at Ras farnesyl transferase [1] (setting [5]) was 1000 to 50000 nM; at Ras farnesyl transferase [2] (setting [6]), 10000 to 100000 nM; at Ras farnesyl transferase [3] (setting [7]), 100 to 10000 nM; on Ras farnesyl transferase [4] (setting [8]), 150 nM.
On to `Cc1cccc(C(=O)c2cn(Cc3c[nH]cn3)cc2-c2cccc3ccccc23)c1` [Compound 51], for which the IC50 at Ras farnesyl transferase [1] (setting [5]) was 1000 to 50000 nM; at Ras farnesyl transferase [2] (setting [6]) it was 10000 to 100000 nM; at Ras farnesyl transferase [3] (setting [7]), 100 to 10000 nM; on Ras farnesyl transferase [4] (setting [8]), 270 nM.
On the same counts, the results for `Cc1ccc(C(=O)c2cn(Cc3c[nH]cn3)cc2-c2cccc3ccccc23)cc1` [Compound 52] are 1000 to 50000 nM, 10000 to 100000 nM, 100 to 10000 nM and 70 nM.
Regarding `COc1cccc(C(=O)c2cn(Cc3c[nH]cn3)cc2-c2cccc3ccccc23)c1` [Compound 53], the IC50 at Ras farnesyl transferase [1] (setting [5]) is 1000 to 50000 nM; at Ras farnesyl transferase [2] (setting [6]), 10000 to 100000 nM; at Ras farnesyl transferase [3] (setting [7]) it was 100 to 10000 nM; at Ras farnesyl transferase [4] (setting [8]) it was 300 nM.
The corresponding values for `COc1ccc(C(=O)c2cn(Cc3c[nH]cn3)cc2-c2cccc3ccccc23)cc1` [Compound 54] are 1000 to 50000 nM, 10000 to 100000 nM, 100 to 10000 nM and 390 nM.
The corresponding values for `O=C(c1ccccc1Cl)c1cn(Cc2c[nH]cn2)cc1-c1cccc2ccccc12` [Compound 55] are 1000 to 50000 nM, 10000 to 100000 nM, 100 to 10000 nM and 60 nM.
Consider `O=C(c1ccc(Cl)cc1)c1cn(Cc2c[nH]cn2)cc1-c1cccc2ccccc12` [Compound 56], for which the IC50 was 1000 to 50000 nM at Ras farnesyl transferase [1] (setting [5]), 10000 to 100000 nM at Ras farnesyl transferase [2] (setting [6]), 100 to 10000 nM on Ras farnesyl transferase [3] (setting [7]) and 40 nM at Ras farnesyl transferase [4] (setting [8]).
On the same counts, the results for `O=C(c1ccc(Cl)cc1Cl)c1cn(Cc2c[nH]cn2)cc1-c1cccc2ccccc12` [Compound 57] are 1000 to 50000 nM, 10000 to 100000 nM, 100 to 10000 nM and 38 nM.
On the same counts, the results for `O=C(c1ccc(F)cc1)c1cn(Cc2c[nH]cn2)cc1-c1cccc2ccccc12` [Compound 58] are 1000 to 50000 nM, 10000 to 100000 nM, 100 to 10000 nM and 25 nM.
On the same counts, the results for `O=C(c1ccc(F)cc1F)c1cn(Cc2c[nH]cn2)cc1-c1cccc2ccccc12` [Compound 59] are 1000 to 50000 nM, 10000 to 100000 nM, 100 to 10000 nM and 570 nM.
In the case of `N#Cc1ccc(C(=O)c2cn(Cc3c[nH]cn3)cc2-c2cccc3ccccc23)cc1` [Compound 60], the IC50 at Ras farnesyl transferase [1] (setting [5]) was 1000 to 50000 nM; at Ras farnesyl transferase [2] (setting [6]), 10000 to 100000 nM; at Ras farnesyl transferase [3] (setting [7]), 100 to 10000 nM; at Ras farnesyl transferase [4] (setting [8]), 200 nM.
The corresponding values for `CSCc1ccc(C(=O)c2cn(Cc3c[nH]cn3)cc2-c2cccc3ccccc23)cc1` [Compound 61] are 1000 to 50000 nM, 10000 to 100000 nM, 100 to 10000 nM and 740 nM.
On the same counts, the results for `CSCCc1ccc(C(=O)c2cn(Cc3c[nH]cn3)cc2-c2cccc3ccccc23)cc1` [Compound 62] are 1000 to 50000 nM, 10000 to 100000 nM, 100 to 10000 nM and 68 nM.
On the same counts, the results for `CSCCOc1ccc(C(=O)c2cn(Cc3c[nH]cn3)cc2-c2cccc3ccccc23)cc1` [Compound 63] are 1000 to 50000 nM, 10000 to 100000 nM, 100 to 10000 nM and 230 nM.
Consider `CSCc1cccc(C(=O)c2cn(Cc3c[nH]cn3)cc2-c2cccc3ccccc23)c1` [Compound 64], for which the IC50 on Ras farnesyl transferase [1] (setting [5]) is 1000 to 50000 nM; on Ras farnesyl transferase [2] (setting [6]), 10000 to 100000 nM; on Ras farnesyl transferase [3] (setting [7]), 100 to 10000 nM; on Ras farnesyl transferase [4] (setting [8]) it was 160 nM.
For `O=C(c1cccc(-c2ccccc2)c1)c1cn(Cc2c[nH]cn2)cc1-c1cccc2ccccc12` [Compound 65], the IC50 was 1000 to 50000 nM at Ras farnesyl transferase [1] (setting [5]), 10000 to 100000 nM on Ras farnesyl transferase [2] (setting [6]), 100 to 10000 nM on Ras farnesyl transferase [3] (setting [7]) and 420 nM on Ras farnesyl transferase [4] (setting [8]).
On to `O=C(c1ccc(-c2ccccc2)cc1)c1cn(Cc2c[nH]cn2)cc1-c1cccc2ccccc12` [Compound 66], for which the IC50 on Ras farnesyl transferase [1] (setting [5]) was 1000 to 50000 nM; on Ras farnesyl transferase [2] (setting [6]), 10000 to 100000 nM; on Ras farnesyl transferase [3] (setting [7]) it was 100 to 10000 nM; at Ras farnesyl transferase [4] (setting [8]), 120 nM.
As for `O=C(c1ccc(Oc2ccccc2)cc1)c1cn(Cc2c[nH]cn2)cc1-c1cccc2ccccc12` [Compound 67], the IC50 on Ras farnesyl transferase [1] (setting [5]) is 3000 nM; at Ras farnesyl transferase [2] (setting [6]), > 50000 nM; on Ras farnesyl transferase [3] (setting [7]), 100 to 10000 nM; on Ras farnesyl transferase [4] (setting [8]) it was 20 nM.
Regarding `O=C(c1ccc(Cc2ccccc2)cc1)c1cn(Cc2c[nH]cn2)cc1-c1cccc2ccccc12` [Compound 68], the IC50 on Ras farnesyl transferase [1] (setting [5]) is 1000 to 50000 nM; on Ras farnesyl transferase [2] (setting [6]) it was 10000 to 100000 nM; at Ras farnesyl transferase [3] (setting [7]), 100 to 10000 nM; on Ras farnesyl transferase [4] (setting [8]), 120 nM.
For `O=C(c1cn(Cc2c[nH]cn2)cc1-c1cccc2ccccc12)c1cccc2ccccc12` [Compound 69], the IC50 against Ras farnesyl transferase [1] was 1000 to 50000 nM; against Ras farnesyl transferase [2], 10000 to 100000 nM; against Ras farnesyl transferase [3], 100 to 10000 nM; at Ras farnesyl transferase [4], 550 nM.
In the case of `Cc1ccc(C(=O)c2cn(Cc3c[nH]cn3)cc2-c2cn(C)c3ccccc23)cc1` [Compound 70], the IC50 is 1000 to 50000 nM on Ras farnesyl transferase [1] (setting [5]), 10000 to 100000 nM at Ras farnesyl transferase [2] (setting [6]), 100 to 10000 nM at Ras farnesyl transferase [3] (setting [7]) and 210 nM on Ras farnesyl transferase [4] (setting [8]).
On the same counts, the results for `CCCCc1c(-c2cccc3ccccc23)c(C(=O)c2ccc(Cl)cc2Cl)cn1Cc1c[nH]cn1` [Compound 71] are 1000 to 50000 nM, 10000 to 100000 nM, 100 to 10000 nM and 120 nM.
The corresponding values for `O=C(c1ccc(Cl)cc1Cl)c1cn(Cc2c[nH]cn2)c(Cc2ccccc2)c1-c1cccc2ccccc12` [Compound 72] are 1000 to 50000 nM, 10000 to 100000 nM, 100 to 10000 nM and 50 nM.
With `N#Cc1ccc(Cn2cncc2Cn2cc(C(=O)c3cccs3)c(-c3cccc4ccccc34)c2)cc1` [Compound 73, 1-[1-(4-Cyanobenzyl)-1H-imidazol-5-yl]methyl-4-(naphthalen-1-yl)-3-(thiophen-2-yl)carbonyl-1H-pyrrole], the IC50 at Ras farnesyl transferase [1] (setting [5]) was 200 nM; on Ras farnesyl transferase [2] (setting [6]) it was > 10000 nM; on Ras farnesyl transferase [3] (setting [7]), 20 nM; at Ras farnesyl transferase [4] (setting [8]) it was 2 nM.
On the same counts, the results for `N#Cc1ccc(Cn2cncc2Cn2cc(C(=O)c3ccsc3)c(-c3cccc4ccccc34)c2)cc1` [Compound 74] are 100 to 1000 nM, 10000 to 100000 nM, 10 to 100 nM and 10 nM.
The corresponding values for `N#Cc1ccc(Cn2cncc2Cn2cc(C(=O)c3cccc(Br)c3)c(-c3cccc4ccccc34)c2)cc1` [Compound 76] are 100 to 1000 nM, 10000 to 100000 nM, 100 to 10000 nM and 4 nM.
The corresponding values for `Cn1cnc(Cn2cc(C(=O)c3ccc(F)cc3)c(-c3cccc4ccccc34)c2)c1` [Compound 78, 3-(4-Fluorobenzoyl)-1-(1-methyl-1H-imidazol-4-yl)methyl-4-(naphthalen-1-yl)-1H-pyrrole] are 100 nM, 10000 to 100000 nM, 200 nM and 4.5 nM.
As to `Cn1cnc(Cn2cc(C(=O)c3ccc(Oc4ccccc4)cc3)c(-c3cccc4ccccc34)c2)c1` [Compound 79, 1-(1-Methyl-1H-imidazol-4-yl)methyl-4-(naphthalen-1-yl)-3-(4-phenoxybenzoyl)-1H-pyrrole], the IC50 at Ras farnesyl transferase [1] (setting [5]) is 100 nM; at Ras farnesyl transferase [2] (setting [6]), > 50000 nM; at Ras farnesyl transferase [3] (setting [7]), 100 nM; on Ras farnesyl transferase [4] (setting [8]), 5 nM.
In the case of `COC(=O)[C@H](CCSC)NC(=O)c1cn(Cc2c[nH]cn2)cc1-c1cccc2ccccc12` [Compound 80, (S)-1-(1H-Imidazol-4-yl)methyl-3-[N-(1-methoxycarbonyl-3-methylthio)propyl]carbamoyl-4-(naphthalen-1-yl)-1H-pyrrole], the IC50 at Ras farnesyl transferase [1] (setting [5]) is 1000 to 50000 nM; at Ras farnesyl transferase [2] (setting [6]), 10000 to 100000 nM; at Ras farnesyl transferase [3] (setting [7]) it was 100 to 10000 nM; at Ras farnesyl transferase [4] (setting [8]), 8210 nM.
Turning to `CSCC[C@H](NC(=O)c1cn(Cc2c[nH]cn2)cc1-c1cccc2ccccc12)C(=O)O` [Compound 81, (S)-3-[N-(1-Hydroxycarbonyl-3-methylthio)propyl]carbamoyl-1-(1H-imidazol-4-yl)methyl-4-(naphthalen-1-yl)-1H-pyrrole], the IC50 on Ras farnesyl transferase [1] (setting [5]) is 1000 to 50000 nM; at Ras farnesyl transferase [2] (setting [6]), 10000 to 100000 nM; on Ras farnesyl transferase [3] (setting [7]), 100 to 10000 nM; at Ras farnesyl transferase [4] (setting [8]), 680 nM.
The corresponding values for `O=C(Nc1ccccc1)c1cn(Cc2c[nH]cn2)cc1-c1cccc2ccccc12` [Compound 82] are 1000 to 50000 nM, 10000 to 100000 nM, 100 to 10000 nM and 400 nM.
